From the NIST ThermoML archive (doi:10.1021/acs.jced.7b00898)

Experiments:
[1] = for surface tension liquid-gas: pt plate; for electrical conductivity / viscosity / mass density: 100 kPa, Liquid; for electrical conductivity: Alternating current cell with electrodes; for viscosity: Falling or rolling sphere viscometry; for mass density: Vibrating tube method
[2] = xn = mol fraction of the nth substance listed; settings: 100 kPa, Liquid, Vibrating tube method, x2 = 0

C[n+]1ccn(CCCC#N)c1.F[B-](F)(F)F [1-butyronitrile-3-methylimidazolium tetrafluoroborate]
[1]
Settings | electrical conductivity [S/m] | mass density [kg/m3] | surface tension liquid-gas [mN/m] | viscosity [mPa·s]
288.15 K | 0.058 | 1316.07 | 49.1 | 590.6
293.15 K | 0.085 | 1312.33 | 48.7 | 417.9
298.15 K | 0.123 | 1308.61 | 48.4 | 302.6
303.15 K | 0.171 | 1304.81 | 48.1 | 223.3
308.15 K | 0.231 | 1301.05 | 47.7 | 169.9
313.15 K | 0.305 | 1297.32 | 47.4 | 128.7
318.15 K | 0.393 | 1293.59 | 47.1 | 100.6
323.15 K | 0.498 | 1289.86 | 46.8 | 79.82

CC#N [acetonitrile]
[1]
Settings | mass density [kg/m3]
288.15 K | 787.33
293.15 K | 781.96
298.15 K | 776.61
303.15 K | 771.18
308.15 K | 765.73
313.15 K | 760.25
318.15 K | 754.72
323.15 K | 749.16

CC#N [acetonitrile] + C[n+]1ccn(CCCC#N)c1.F[B-](F)(F)F
[2]
Settings | mass density [kg/m3]
288.15 K | 787.33
293.15 K | 781.96
298.15 K | 776.61
303.15 K | 771.18
308.15 K | 765.73
313.15 K | 760.25
318.15 K | 754.72
323.15 K | 749.16
